Source: patent US20030050302A1, “Treatment of conditions associated with amyloid processing using PKC activators” (Neurologic, Inc., priority 2000, published 2003)

How the values were obtained:
[1] = tested on: fibroblasts from AD patients; assay: TEA-induced [Ca2+] elevation (calcium imaging) in AD fibroblasts
Protocol: (§2) The culture medium in which cells were grown was Dulbecco's modified Eagle's medium (GIBCO) supplemented with 10% fetal calf serum (Biofluids, Inc.).
(§3) Round, 25-mm glass coverslips were flame-polished and placed inside 35-mm Nunc petri dishes. Cells were seeded (ca. 10-15 cells/mm^2) in these petri dishes and used when cell density was equivalent for all cell lines (ca 180 cells/mm^2). […] Briefly, culture medium was removed and cells were washed at least three times with basal salt solution (BSS; in mM: NaCl 140, KCl 5, CaCl2 2.5, MgCl2 1.5, Hepes 10, glucose 5, pH 7.4). The fluorescent probe was loaded by incubating cells in 1 μM fura 2-AM (Molecular Probes) in 1 ml BSS at room temperature (RT). One hour later, cells were washed thoroughly with BSS and 1 ml of fresh BSS was added for [Ca^2+] baseline measurements. […] A 40× Zeiss Fluor (oil immersion) objective lens was used.
A group of cells was treated with the PKC activator benzolactam prior to the TEA challenge. BL was dissolved in dimethyl sulfoxide (DMSO; Sigma) to achieve a final testing concentration of 50 nM when 1 ml of the dissolved BL was added to the dish 1 minute prior to TEA application. […] Seven to ten petri dishes of cells were tested from each cell line for each experimental condition. In almost all the cell lines, a minimum of 100 cells were tested per treatment per cell line (total 9231 cells). There were only three AC cell lines for which the number of cells in a couple of treatment groups was above 65 but below 100. Experiments for each cell line were repeated on at least one separate occasion (minimum 1-week interval). Response in a given cell was characterized as a double-fold increase in baseline [Ca^2+]

sAPP [2] = assay: sAPP secretion in AD fibroblasts (immunoblot densitometry)
Protocol: (§4) Human fibroblasts were obtained from the Coriell Cell Repositories (Camden N.J.). […] The culture medium was DMEM supplemented with 10% serum (FBS, Gibeo). PC12 cells were obtained from the American Cell Culture Collection and grown to confluence in T75 flasks containing DMEM supplemented with 5% FPS (Gibeo), 10% horse serum (Biofluids) and 1% of a mixture of penicillin (5000 units/ml in G sodium) and streptomycin (5000 μg/ml).
(§5) Complete culture medium was removed just prior to experiments.
(§6) After two hours of incubation, the supernatant was removed and the secreted proteins were precipitated with 10% TCA and resuspended in Tris-glycine SDS electrophoresis sample buffer (Novex). The samples were boiled for 5 min, subjected to electrophoresis and later to immunoblotting for identification of sAPP.
(§7) Conventional immunoblotting techniques were employed. […] The volume of sample loaded was corrected for total cell protein per flask. Proteins were transferred electrophoretically to nitrocellulose membranes. The membranes were saturated with Blotto blocker (Pierce) and incubated overnight at 4° C. with 1:500 6E10 monoclonal antibody from Senetek. After washing, the membranes were incubated for 1 h at room temperature with the secondary antibody, alkaline phosphatase anti-mouse. IfG (Vector Laboratories) and developed using a BCIP/NBT subtrate kit (Vector Laboratories). The bands were quantitated by densitometric analyses (NIH Image, version 1.6) after obtaining a digital image of each membrane.

sAPP [3] = assay: sAPP secretion in age-matched control fibroblasts (immunoblot densitometry)
Protocol: as §4, §5, §6, §7

PKC α isoform [4] = biological target: T1, PKC α isoform (Homo sapiens, UniProt P17252); assay: Immunoblot of PKC α translocation cytosol to membrane in AC cell lines; type: cell-based; set-up: endogenous in cells; host or cells: human skin fibroblast lines from AC controls; conditions: AC cells, 50 nM
Protocol: (§1) Cells were grown to confluency (˜90%) in t-75 flasks. […] Fibroblasts were washed twice with ice-cold PBS, scraped in PBS, and collected by low-speed centrifugation. The pellets were resuspended in the following homogenization buffer: 20 mM Tris-HCl, pH 7.5, 2 mM EDTA, 2 mM EGTA, 5 mM DTT, 0.32 M sucrose, 2 mM PMSF, 25 μg/ml leupeptin. Homogenates were immersed in liquid nitrogen, thawed, and centrifuged at 12,000 g for 20 minutes, and the supernatants were used as the cytosolic fraction. The pellets were homogenized in the same buffer containing 1.0% Triton X-100, incubated in ice for 45 minutes, and centrifuged at 12,000 g for 30 minutes. The supernatant from this batch was used as the membranous fraction. […] The membrane was saturated with Blotto blocker (Pierce) by incubating it at RT for an hour. The primary antibody for PKC α isoform (Transduction Laboratories) was diluted (1:1000) in blocking solution and incubated with the membrane for 1 hour at RT. After incubation with the secondary antibody, alkaline phosphatasae antimouse IgG (Vector Laboratories), the membrane was developed using an alkaline phosphatase kit (Vector Laboratories) as per the manufacturer's instructions. The conditions for developing the membranes were kept as similar as possible. […]

sAPP [5] = assay: sAPP secretion in PC12 cells (immunoblot densitometry); conditions: for sAPP secretion vs basal level: 10 μM
Protocol: as §4, §5, §6, §7

[6] = tested on: age-matched control (AC) fibroblasts; assay: TEA-induced [Ca2+] elevation (calcium imaging) in age-matched control (AC) fibroblasts; conditions: 50 nM, 1 minute
Protocol: as §2, §3
A group of cells was treated with the PKC activator benzolactam prior to the TEA challenge. BL was dissolved in dimethyl sulfoxide (DMSO; Sigma) to achieve a final testing concentration of 50 nM when 1 ml of the dissolved BL was added to the dish 1 minute prior to TEA application. […] Seven to ten petri dishes of cells were tested from each cell line for each experimental condition. In almost all the cell lines, a minimum of 100 cells were tested per treatment per cell line (total 9231 cells). […]

PKC δ = PKC δ (Homo sapiens, UniProt Q05655); conditions: δ isoform vs α; cited from earlier work
[7] = rats, personal communication; cited from earlier work
PKC ε = biological target: T2, PKC ε (Homo sapiens, UniProt Q02156); conditions: ε isoform vs α; cited from earlier work
T2 sequence (Q02156 1-737): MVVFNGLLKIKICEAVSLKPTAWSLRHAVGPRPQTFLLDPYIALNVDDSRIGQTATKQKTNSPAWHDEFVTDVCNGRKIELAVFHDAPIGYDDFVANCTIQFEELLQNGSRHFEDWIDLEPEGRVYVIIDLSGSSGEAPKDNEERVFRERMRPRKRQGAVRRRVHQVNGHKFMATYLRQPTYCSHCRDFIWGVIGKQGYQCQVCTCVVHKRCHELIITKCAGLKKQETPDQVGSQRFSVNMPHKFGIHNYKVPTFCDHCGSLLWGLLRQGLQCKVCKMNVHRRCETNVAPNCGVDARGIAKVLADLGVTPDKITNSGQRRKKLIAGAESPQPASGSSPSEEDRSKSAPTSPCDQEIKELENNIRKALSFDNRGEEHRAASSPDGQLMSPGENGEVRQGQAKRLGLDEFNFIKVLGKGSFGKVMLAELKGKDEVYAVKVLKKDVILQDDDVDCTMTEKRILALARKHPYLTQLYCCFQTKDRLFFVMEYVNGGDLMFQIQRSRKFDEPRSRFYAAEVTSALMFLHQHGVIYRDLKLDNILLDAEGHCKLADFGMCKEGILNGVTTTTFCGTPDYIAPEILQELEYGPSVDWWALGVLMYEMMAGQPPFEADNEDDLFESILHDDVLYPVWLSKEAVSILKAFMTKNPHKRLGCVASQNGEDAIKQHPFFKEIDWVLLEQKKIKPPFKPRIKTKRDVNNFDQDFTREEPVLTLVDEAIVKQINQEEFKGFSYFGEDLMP

PKC α isoform [8] = biological target: T1, PKC α isoform; assay: Immunoblot of PKC α translocation cytosol to membrane in AD cell lines; type: cell-based; set-up: endogenous in cells; host or cells: human skin fibroblast lines from AD patients and AC controls; conditions: 50 nM
Protocol: as §1

[9] = tested on: 113 pS TEA-sensitive K+ channel; assay: Patch-clamp single-channel recording in AD cell line AG06848; type: cell-based, human
Protocol: Patch-claim experiments were performed on 13 separate replicate representative experiments in a well-characterized AD cell line (AG06848) which is normally silent for the 113 pS TEA-sensitive K^+ channel (Etcheberrigaray et al., 1993). The experiment was performed at room temperature (21-23° C.) following standard procedures (Sakmann & Neher, 1983). The culture medium was replaced with the following solution (mM, NaCl 150, KCl 5, CaCl2 2, MgCl2 1, Hepes (NaOH) 10, pH 7.4, prior to recording. Benzolactam was added to a dish after ensuring that the patch is silent for the II 3 pS K^+ channel. The recording electrodes, filled with a high-K^+ solution (mM), KCl 140, CaCl2 2, MgCl2 1, Hepes (NaOH) 10, pH 7.4, were made from Blu Tip capillary tubes (i.d. 1.1-1.2 mm; Oxford Labware) by using a BB-CH-PC Mecanex puller to obtain pipette resistances that were ˜6 MΩ. An Axopath-IC amplifier was used to obtain records and a JVC Vetter PCM videorecorder was used to store the data on tape. The data were acquired and analyzed on a personal computer with a pClamp suite of programs by transferring the information via an Axolab interface from the amplifier. All three components-amplifier, interface, and software-were obtained from Axon Instruments (Foster City, Calif.).

PKC δ, sequence (Q05655 whole entry, canonical isoform): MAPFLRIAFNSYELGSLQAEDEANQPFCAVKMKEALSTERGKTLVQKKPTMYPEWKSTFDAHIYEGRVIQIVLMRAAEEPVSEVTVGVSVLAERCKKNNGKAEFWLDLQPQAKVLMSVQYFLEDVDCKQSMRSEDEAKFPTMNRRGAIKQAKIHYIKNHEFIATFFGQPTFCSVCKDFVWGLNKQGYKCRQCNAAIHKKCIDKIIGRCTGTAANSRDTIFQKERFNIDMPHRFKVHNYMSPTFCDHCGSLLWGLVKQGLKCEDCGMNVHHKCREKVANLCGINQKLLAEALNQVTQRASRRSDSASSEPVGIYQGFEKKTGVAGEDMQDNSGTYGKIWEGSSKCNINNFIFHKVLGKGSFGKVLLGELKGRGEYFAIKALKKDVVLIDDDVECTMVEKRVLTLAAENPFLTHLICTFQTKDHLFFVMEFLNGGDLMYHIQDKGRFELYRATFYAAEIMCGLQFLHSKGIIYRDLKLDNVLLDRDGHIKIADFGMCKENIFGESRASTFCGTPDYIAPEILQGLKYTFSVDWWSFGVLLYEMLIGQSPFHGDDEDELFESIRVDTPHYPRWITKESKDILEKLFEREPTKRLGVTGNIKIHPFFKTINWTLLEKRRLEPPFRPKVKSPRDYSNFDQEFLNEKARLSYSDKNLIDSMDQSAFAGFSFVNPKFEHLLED

CCCC(=O)O[C@@H]1[C@@H](C)[C@@]2(O)[C@@H](C=C(CO)C[C@]3(O)C(=O)C(C)=C[C@@H]23)[C@@H]2C(C)(C)[C@]12OC(=O)CCC [PDBu, phorbol 12,13-dibutyrate]
TEA response vs 4α-PHR-treated cells ([1]; AD cells, 50 nM, 45 minutes): did not differ | TEA response, shorter incubation times ([1]; AD cells, 1 and 15 minutes incubation): without effect | sAPP secretion vs basal (sAPP [2]; AD cell lines, 0.5 μM, 2 h): maximal at 500 nM | sAPP secretion vs basal (sAPP [2]; AD cell lines, 0.5, 1 and 10 μM, 2 h): statistically significant increases | sAPP secretion vs basal (sAPP [3]; age-matched control cell lines, 0.5, 1 and 10 μM): statistical significance was not reached

CN[C@@H]1C[C@H]2O[C@@](C)([C@@H]1OC)n1c3ccccc3c3c4c(c5c6ccccc6n2c5c31)C(=O)NC4 [staurosporine]
effect on BL-induced sAPP secretion (sAPP [2]; AD cell lines, 0.5 μM staurosporine 30 min prior to BL): completely prevented | effect on phorbol (PDBu)-induced sAPP secretion (sAPP [2]; staurosporine pretreatment, data not shown): significantly reduced | sAPP secretion, staurosporine alone (sAPP [3]; age-matched control cell lines): without effect | effect on increase in sAPP secretion caused by 10 μM BL (sAPP [3]; age-matched control cell lines, 0.5 μM staurosporine pretreatment): effective in preventing

CCCCCCCCC#Cc1ccc2c(c1)C[C@@H](CO)NC(=O)[C@H](C(C)C)N2C [BL, (2S, 5S)-8-(1′-decynyl)benzolactam]
percentage of cells responding to TEA vs untreated and DMSO-treated controls ([1]; AD cell lines, 50 nM, 1 minute): significantly increased | percentage of cells responding to TEA ([1]; AD cells treated with BL (50 nM, 1 minute) before 100 mM TEA): 19.58% | PKC translocation vs basal levels (PKC α isoform [4]; 1 minute): ns | PKC α particulate/soluble ratio (PKC α isoform [4]; 15 minutes): 1.72 | sAPP secretion (sAPP [5]): ~3 fold | sAPP secretion vs basal level (sAPP [5]): significantly increased | percentage of response to TEA vs untreated or DMSO-treated cells [6]: did not differ | affinity lower than for PKC α (PKC δ): at least 10 fold | sAPP secretion vs basal (sAPP [2]; AD cell lines, 0.5 μM, 2 h): did not reach statistical significance | sAPP secretion vs basal, post test significance (sAPP [2]; AD cell lines, 1 μM, 2 h): significance level of p<0.001 | sAPP secretion over basal (sAPP [2]; AD cell lines, 10 μM, 2 h): almost three-fold increase | antitumoral activity [7]: shows antitumoral activity | affinity lower than for PKC α (PKC ε): at least 10 fold | redistribution of PKC α from cytosol to membrane vs basal ratio (PKC α isoform [8]; 1 minute): pronounced redistribution | PKC α particulate/soluble ratio (PKC α isoform [8]; 15 minutes): 1.156 | K+ channel activity after BL activation ([9]; AD cell line AG06848, 1 minute BL treatment): 54% | cells showing unambiguous 113 pS K+ channel ([9]; of 13 recordings silent before BL, 1 minute BL treatment): 7

CCCCCCCCCCCC(=O)Oc1ccc([C@H]2[C@@H](C(C)C)C(=O)N[C@@H]2CO)c2ccccc12 [LQ12]
sAPP secretion vs basal level (sAPP [5]): significantly increased
